# From PubChem BioAssay (NCI)
#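 Test compounds were applied to cells in 96-well plates for 48 hours at 5 doses. At the GI50, growth is halved. Definition used: TGI = concentration required for complete inhibition of growth.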
# Assays:
# Experiment in all cases: inhibition of tumour cell growth, NCI panel, 48 h
# NCI-H460 lung = test system: NCI-H460 lung
# UACC-62 melanoma = test system: UACC-62 melanoma
# IGROV1 ovarian = test system: IGROV1 ovarian
# RPMI-8226 leukemia = test system: RPMI-8226 leukemia
# UACC-257 melanoma = test system: UACC-257 melanoma
# CCRF-CEM leukemia = test system: CCRF-CEM leukemia
# SN12C renal = test system: SN12C renal
# SNB-75 CNS = test system: SNB-75 CNS
# UO-31 renal = test system: UO-31 renal
# MCF7 breast = test system: MCF7 breast
# SK-MEL-2 melanoma = test system: SK-MEL-2 melanoma
# PC-3 prostate = test system: PC-3 prostate
# ACHN renal = test system: ACHN renal
# NCI-H226 lung = test system: NCI-H226 lung
# T-47D breast = test system: T-47D breast
# HT29 colon = test system: HT29 colon
# NCI-H522 lung = test system: NCI-H522 lung
# LOX IMVI melanoma = test system: LOX IMVI melanoma
# SK-MEL-28 melanoma = test system: SK-MEL-28 melanoma
# MDA-MB-435 = test system: MDA-MB-435
# HCC-2998 colon = test system: HCC-2998 colon
# SK-OV-3 ovarian = test system: SK-OV-3 ovarian
# HCT-116 colon = test system: HCT-116 colon
# U251 CNS = test system: U251 CNS
# HCT-15 colon = test system: HCT-15 colon
# 786-0 renal = test system: 786-0 renal
# OVCAR-5 ovarian = test system: OVCAR-5 ovarian
# SK-MEL-5 melanoma = test system: SK-MEL-5 melanoma
# K-562 leukemia = test system: K-562 leukemia
# MOLT-4 leukemia = test system: MOLT-4 leukemia
# HOP-62 NSCLC = test system: HOP-62 NSCLC
# DU-145 prostate = test system: DU-145 prostate
# RXF 393 renal = test system: RXF 393 renal
# M14 melanoma = test system: M14 melanoma
# TK-10 renal = test system: TK-10 renal
# SF-268 CNS = test system: SF-268 CNS
# BT-549 breast = test system: BT-549 breast
# CAKI-1 renal = test system: CAKI-1 renal
# MALME-3M melanoma = test system: MALME-3M melanoma
# SNB-19 CNS = test system: SNB-19 CNS
# NCI-H23 lung = test system: NCI-H23 lung
# NCI/ADR-RES ovarian = test system: NCI/ADR-RES ovarian
# SF-295 CNS = test system: SF-295 CNS
# SF-539 CNS = test system: SF-539 CNS
# COLO 205 colon = test system: COLO 205 colon
# A498 renal = test system: A498 renal
# OVCAR-8 ovarian = test system: OVCAR-8 ovarian
# SW-620 colon = test system: SW-620 colon
# HS 578T breast = test system: HS 578T breast
# EKVX NSCLC = test system: EKVX NSCLC
# KM12 colon = test system: KM12 colon
# A549 NSCLC = test system: A549 NSCLC
# OVCAR-4 ovarian = test system: OVCAR-4 ovarian
# MDA-MB-231 breast = test system: MDA-MB-231 breast
# HOP-92 NSCLC = test system: HOP-92 NSCLC
# SR leukemia = test system: SR leukemia
# OVCAR-3 ovarian = test system: OVCAR-3 ovarian
# HL-60(TB) leukemia = test system: HL-60(TB) leukemia
structure (smiles),measurement,setting,value
CCC1OC(/C(C)=C/C(C)/C=C/C2C(C)C2/C=C/C2OC(CC(=O)O)CC(O)C2O)CC=C1C (stereo not drawn),GI50,NCI-H460 lung,> 50000 nM
same,TGI,NCI-H460 lung,> 50000 nM
same,GI50,UACC-62 melanoma,> 50000 nM
same,TGI,UACC-62 melanoma,> 50000 nM
same,GI50,IGROV1 ovarian,> 50000 nM
same,TGI,IGROV1 ovarian,> 50000 nM
same,GI50,RPMI-8226 leukemia,> 50000 nM
same,TGI,RPMI-8226 leukemia,> 50000 nM
same,GI50,UACC-257 melanoma,> 50000 nM
same,TGI,UACC-257 melanoma,> 50000 nM
same,GI50,CCRF-CEM leukemia,> 50000 nM
same,TGI,CCRF-CEM leukemia,> 50000 nM
same,GI50,SN12C renal,> 50000 nM
same,TGI,SN12C renal,> 50000 nM
same,GI50,SNB-75 CNS,> 50000 nM
same,TGI,SNB-75 CNS,> 50000 nM
same,GI50,UO-31 renal,> 50000 nM
same,TGI,UO-31 renal,> 50000 nM
same,GI50,MCF7 breast,> 50000 nM
same,TGI,MCF7 breast,> 50000 nM
same,GI50,SK-MEL-2 melanoma,> 50000 nM
same,TGI,SK-MEL-2 melanoma,> 50000 nM
same,GI50,PC-3 prostate,> 50000 nM
same,TGI,PC-3 prostate,> 50000 nM
same,GI50,ACHN renal,> 50000 nM
same,TGI,ACHN renal,> 50000 nM
same,GI50,NCI-H226 lung,> 50000 nM
same,TGI,NCI-H226 lung,> 50000 nM
same,GI50,T-47D breast,> 50000 nM
same,TGI,T-47D breast,> 50000 nM
same,GI50,HT29 colon,> 50000 nM
same,TGI,HT29 colon,> 50000 nM
same,GI50,NCI-H522 lung,> 50000 nM
same,TGI,NCI-H522 lung,> 50000 nM
same,GI50,LOX IMVI melanoma,> 50000 nM
same,TGI,LOX IMVI melanoma,> 50000 nM
same,GI50,SK-MEL-28 melanoma,> 50000 nM
same,TGI,SK-MEL-28 melanoma,> 50000 nM
same,GI50,MDA-MB-435,> 50000 nM
same,TGI,MDA-MB-435,> 50000 nM
same,GI50,HCC-2998 colon,> 50000 nM
same,TGI,HCC-2998 colon,> 50000 nM
same,GI50,SK-OV-3 ovarian,> 50000 nM
same,TGI,SK-OV-3 ovarian,> 50000 nM
same,GI50,HCT-116 colon,> 50000 nM
same,TGI,HCT-116 colon,> 50000 nM
same,GI50,U251 CNS,> 50000 nM
same,TGI,U251 CNS,> 50000 nM
same,GI50,HCT-15 colon,> 50000 nM
same,TGI,HCT-15 colon,> 50000 nM
same,GI50,786-0 renal,> 50000 nM
same,TGI,786-0 renal,> 50000 nM
same,GI50,OVCAR-5 ovarian,> 50000 nM
same,TGI,OVCAR-5 ovarian,> 50000 nM
same,GI50,SK-MEL-5 melanoma,> 50000 nM
same,TGI,SK-MEL-5 melanoma,> 50000 nM
same,GI50,K-562 leukemia,> 50000 nM
same,TGI,K-562 leukemia,> 50000 nM
same,GI50,MOLT-4 leukemia,> 50000 nM
same,TGI,MOLT-4 leukemia,> 50000 nM
same,GI50,HOP-62 NSCLC,> 50000 nM
same,TGI,HOP-62 NSCLC,> 50000 nM
same,GI50,DU-145 prostate,> 50000 nM
same,TGI,DU-145 prostate,> 50000 nM
same,GI50,RXF 393 renal,> 50000 nM
same,TGI,RXF 393 renal,> 50000 nM
same,GI50,M14 melanoma,> 50000 nM
same,TGI,M14 melanoma,> 50000 nM
same,GI50,TK-10 renal,9600 nM
same,TGI,TK-10 renal,> 50000 nM
same,GI50,SF-268 CNS,> 50000 nM
same,TGI,SF-268 CNS,> 50000 nM
same,GI50,BT-549 breast,> 50000 nM
same,TGI,BT-549 breast,> 50000 nM
same,GI50,CAKI-1 renal,> 50000 nM
same,TGI,CAKI-1 renal,> 50000 nM
same,GI50,MALME-3M melanoma,1990 nM
same,TGI,MALME-3M melanoma,> 50000 nM
same,GI50,SNB-19 CNS,> 50000 nM
same,TGI,SNB-19 CNS,> 50000 nM
same,GI50,NCI-H23 lung,> 50000 nM
same,TGI,NCI-H23 lung,> 50000 nM
same,GI50,NCI/ADR-RES ovarian,14400 nM
same,TGI,NCI/ADR-RES ovarian,> 50000 nM
same,GI50,SF-295 CNS,> 50000 nM
same,TGI,SF-295 CNS,> 50000 nM
same,GI50,SF-539 CNS,> 50000 nM
same,TGI,SF-539 CNS,> 50000 nM
same,GI50,COLO 205 colon,> 50000 nM
same,TGI,COLO 205 colon,> 50000 nM
same,GI50,A498 renal,> 50000 nM
same,TGI,A498 renal,> 50000 nM
same,GI50,OVCAR-8 ovarian,> 50000 nM
same,TGI,OVCAR-8 ovarian,> 50000 nM
same,GI50,SW-620 colon,> 50000 nM
same,TGI,SW-620 colon,> 50000 nM
same,GI50,HS 578T breast,> 50000 nM
same,TGI,HS 578T breast,> 50000 nM
same,GI50,EKVX NSCLC,> 50000 nM
same,TGI,EKVX NSCLC,> 50000 nM
same,GI50,KM12 colon,> 50000 nM
same,TGI,KM12 colon,> 50000 nM
same,GI50,A549 NSCLC,> 50000 nM
same,TGI,A549 NSCLC,> 50000 nM
same,GI50,OVCAR-4 ovarian,> 50000 nM
same,TGI,OVCAR-4 ovarian,> 50000 nM
CC(C)=CCC/C(C)=C/[C@H]1OC(=O)CC12C[C@H](O)C=CC2=O (stereo partly drawn),GI50,NCI-H460 lung,692 nM
same,TGI,NCI-H460 lung,2210 nM
same,GI50,UACC-62 melanoma,1340 nM
same,TGI,UACC-62 melanoma,2680 nM
same,GI50,IGROV1 ovarian,1650 nM
same,GI50,RPMI-8226 leukemia,235 nM
same,TGI,RPMI-8226 leukemia,594 nM
same,GI50,UACC-257 melanoma,1200 nM
same,TGI,UACC-257 melanoma,2820 nM
same,GI50,CCRF-CEM leukemia,171 nM
same,TGI,CCRF-CEM leukemia,521 nM
same,GI50,SN12C renal,529 nM
same,TGI,SN12C renal,2000 nM
same,GI50,SNB-75 CNS,1640 nM
same,TGI,SNB-75 CNS,4200 nM
same,GI50,MDA-MB-231 breast,1550 nM
same,TGI,MDA-MB-231 breast,3290 nM
same,GI50,UO-31 renal,1960 nM
same,GI50,MCF7 breast,421 nM
same,TGI,MCF7 breast,1290 nM
same,GI50,HOP-92 NSCLC,1210 nM
same,TGI,HOP-92 NSCLC,3060 nM
same,GI50,SK-MEL-2 melanoma,1740 nM
same,TGI,SK-MEL-2 melanoma,> 45100 nM
same,GI50,PC-3 prostate,384 nM
same,TGI,PC-3 prostate,1420 nM
same,GI50,SR leukemia,383 nM
same,TGI,SR leukemia,> 100000 nM
same,GI50,T-47D breast,194 nM
same,TGI,T-47D breast,692 nM
same,GI50,HT29 colon,469 nM
same,GI50,NCI-H522 lung,1190 nM
same,GI50,SK-MEL-28 melanoma,2230 nM
same,TGI,SK-MEL-28 melanoma,5090 nM
same,GI50,MDA-MB-435,458 nM
same,TGI,MDA-MB-435,1640 nM
same,GI50,HCC-2998 colon,221 nM
same,TGI,HCC-2998 colon,448 nM
same,GI50,SK-OV-3 ovarian,1440 nM
same,TGI,SK-OV-3 ovarian,3190 nM
same,GI50,HCT-116 colon,323 nM
same,TGI,HCT-116 colon,1210 nM
same,GI50,U251 CNS,752 nM
same,TGI,U251 CNS,2030 nM
same,GI50,HCT-15 colon,509 nM
same,TGI,HCT-15 colon,> 100000 nM
same,GI50,786-0 renal,727 nM
same,TGI,786-0 renal,1930 nM
same,GI50,OVCAR-5 ovarian,1140 nM
same,TGI,OVCAR-5 ovarian,2540 nM
same,GI50,SK-MEL-5 melanoma,1350 nM
same,TGI,SK-MEL-5 melanoma,3170 nM
same,GI50,K-562 leukemia,363 nM
same,TGI,K-562 leukemia,> 100000 nM
same,GI50,HOP-62 NSCLC,856 nM
same,TGI,HOP-62 NSCLC,2430 nM
same,GI50,DU-145 prostate,529 nM
same,TGI,DU-145 prostate,2180 nM
same,GI50,M14 melanoma,320 nM
same,TGI,M14 melanoma,833 nM
same,GI50,TK-10 renal,1310 nM
same,TGI,TK-10 renal,2930 nM
same,GI50,SF-268 CNS,922 nM
same,TGI,SF-268 CNS,2650 nM
same,GI50,BT-549 breast,802 nM
same,TGI,BT-549 breast,3170 nM
same,GI50,CAKI-1 renal,827 nM
same,TGI,CAKI-1 renal,2300 nM
same,GI50,SNB-19 CNS,1360 nM
same,TGI,SNB-19 CNS,2640 nM
same,GI50,OVCAR-3 ovarian,455 nM
same,TGI,OVCAR-3 ovarian,848 nM
same,GI50,NCI-H23 lung,308 nM
same,TGI,NCI-H23 lung,1040 nM
same,GI50,HL-60(TB) leukemia,323 nM
same,TGI,HL-60(TB) leukemia,1110 nM
same,GI50,NCI/ADR-RES ovarian,553 nM
same,TGI,NCI/ADR-RES ovarian,2470 nM
same,GI50,SF-295 CNS,1980 nM
same,TGI,SF-295 CNS,4690 nM
same,GI50,SF-539 CNS,421 nM
same,TGI,SF-539 CNS,1260 nM
same,GI50,COLO 205 colon,1100 nM
same,TGI,COLO 205 colon,3720 nM
same,GI50,A498 renal,1470 nM
same,TGI,A498 renal,3090 nM
same,GI50,OVCAR-8 ovarian,791 nM
same,GI50,SW-620 colon,446 nM
same,TGI,SW-620 colon,> 100000 nM
same,GI50,HS 578T breast,1810 nM
same,TGI,HS 578T breast,5020 nM
same,GI50,EKVX NSCLC,2210 nM
same,TGI,EKVX NSCLC,5240 nM
same,GI50,KM12 colon,777 nM
same,TGI,KM12 colon,2670 nM
same,GI50,A549 NSCLC,2080 nM
same,TGI,A549 NSCLC,15800 nM
